Laboratory results from ChEMBL document CHEMBL1149636.

Target: Carbonic anhydrase 4 (Homo sapiens) (UniProt P22748)
Sequence (P22748 whole entry): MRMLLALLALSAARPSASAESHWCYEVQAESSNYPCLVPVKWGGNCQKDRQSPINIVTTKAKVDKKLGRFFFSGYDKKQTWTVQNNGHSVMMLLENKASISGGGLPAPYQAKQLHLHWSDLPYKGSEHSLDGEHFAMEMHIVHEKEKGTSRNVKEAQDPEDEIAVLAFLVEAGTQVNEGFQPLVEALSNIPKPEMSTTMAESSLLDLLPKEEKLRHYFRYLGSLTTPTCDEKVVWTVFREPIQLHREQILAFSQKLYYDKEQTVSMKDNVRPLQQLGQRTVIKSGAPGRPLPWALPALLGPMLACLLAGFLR
Description: Inhibition of human recombinant full length CA4 by stopped-flow technique

CCNC1CN(CCCOC)S(=O)(=O)c2sc(S(N)(=O)=O)cc21 (single isomer, unassigned)
Kinact: 3.95 µM
